Patent publication US20050058603A1, “Drug delivery system based on polymer nanoshells” (Case Western Reserve University, priority 2003, published 2005)

Test system: MCF-7 cells
Experiment: Cytotoxicity study of DOX loaded shells vs free doxorubicin solution and empty shells
Details: 5 days
Method: Human breast cancer MCF-7 cells were obtained from ATCC.
Free DOX solution, DOX-loaded shells, and empty shells of different concentrations were used in cell cytotoxicity studies for 5 days.
A cytotoxicity study of DOX loaded shells was carried out in vitro as compared to free doxorubicin solution (FIG. 13).
All samples were incubated in culture media for 5 days.

COc1cccc2c1C(=O)c1c(O)c3c(c(O)c1C2=O)C[C@@](O)(C(=O)CO)C[C@@H]3O[C@H]1C[C@H](N)[C@H](O)[C@H](C)O1.Cl [Doxorubicin solution, Doxorubicin]
cytotoxicity compared to free DOX solution: strongest cytotoxicity
